pIC50: −log10 of the molar value.

The target in assay [1] is T1, α1d-AR (Homo sapiens, UniProt P25100).
T1 construct: expressed in transfected cells; host or cells: COS cells (pcDNA3 vector, DEAE-dextran transient transfection); membrane preparation
T1 sequence (P25100 1-572): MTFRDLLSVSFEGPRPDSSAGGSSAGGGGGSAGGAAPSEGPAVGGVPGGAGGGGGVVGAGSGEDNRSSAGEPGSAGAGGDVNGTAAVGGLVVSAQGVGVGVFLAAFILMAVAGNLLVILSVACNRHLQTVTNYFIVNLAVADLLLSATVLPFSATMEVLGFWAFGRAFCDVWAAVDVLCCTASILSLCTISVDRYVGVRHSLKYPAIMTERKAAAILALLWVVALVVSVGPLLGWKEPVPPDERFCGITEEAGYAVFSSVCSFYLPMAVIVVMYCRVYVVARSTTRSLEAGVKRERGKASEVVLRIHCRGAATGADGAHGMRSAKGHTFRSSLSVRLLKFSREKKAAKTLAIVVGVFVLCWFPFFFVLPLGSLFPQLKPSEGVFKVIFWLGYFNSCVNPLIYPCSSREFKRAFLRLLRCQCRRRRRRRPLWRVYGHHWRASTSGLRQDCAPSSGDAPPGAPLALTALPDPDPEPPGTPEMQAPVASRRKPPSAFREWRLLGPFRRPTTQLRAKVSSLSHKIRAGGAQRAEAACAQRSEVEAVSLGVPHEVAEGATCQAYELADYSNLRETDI
The assay can be described thus: radioligand ([125I]-HEAT) receptor binding assay, COS cell membranes, α1d-AR. The settings on record: Tables A-J, [125I]-HEAT 50 pM. From the text:
(§1) The first assay tested the ability of compounds of Formula I to bind to membrane bound receptors α1a-AR, α1b-AR and α1d-AR.
(§2) The DNA sequences of the three cloned human α1-AR subtypes have been published. […] We used published DNA sequence information to design-primers for use in RT-PCR amplification of each subtype to obtain cloned cDNAs. Human poly A+ RNA was obtained from commercially available sources and included hippocampus and prostate samples, sources which have been cited in the literature. For the primary screen a radio ligand binding assay was used which employed membrane preparations from cells expressing the individual cloned receptor cDNAs. Radiolabeled ligands with binding activity on all three subtypes (non-selective) are commercially available ([125I]-HEAT, [3H]-prazosin).
(§3) Each α1 receptor subtype was cloned from poly A+ RNA by the standard method of reverse transcription-polymerase chain reaction (RT-PCR). The following sources of polyA+ RNA were used for the cloning of the al receptor subtypes: α1a-AR, human hippocampus and prostate, α1b-AR, human hippocampus, α1d-AR, human hippocampus. The resulting cDNAs were cloned into the pcDNA3 mammalian expression vector (Invitrogen Corp., San Diego Calif.). Each DNA was sequenced for verification and to detect any possible mutations introduced during the amplification process. Any deviation in sequence from the published consensus for each receptor subtype was corrected by site-directed mutagenesis.
(§4) The three α1-AR subtypes (a, b, d) were transfected into COS cells using a standard DEAE-dextran procedure with a chloroquine shock. In this procedure, each tissue culture dish (100 mm) was inoculated with 3.5×10^6 cells and transfected with 10 μg of DNA. Approximately 72 hours post-transfection, the cells were harvested and COS membranes were prepared. Transfected COS cells from 25 plates (100 mm) were scraped and suspended in 15 mL of TE buffer (50 mM Tris-HCl, 5 mM EDTA, pH7.4). The suspension was disrupted with a homogenizer. It was then centrifuged at 1000×g for 10 minutes at 4° C. The supernatant was centrifuged at 34,500×g for 20 minutes at 4° C. The pellet was resuspended in 5 mL TNE buffer (50 mM Tris-HCl, 5 mM EDTA, 150 mM NaCl, pH7.4). The resulting membrane preparation was aliquoted and stored at −70° C. The protein concentration was determined following membrane solubilization with TritonX-100.
(§5) The ability of each compound to bind to each of the α1-AR subtypes was assessed in a receptor binding assay. [125I]-HEAT, a non-selective α1-AR ligand, was used as the radiolabeled ligand. Each well of a 96-well plate received: 140 μL TNE, 25 μL [125I]-HEAT diluted in TNE (50,000 cpm; final concentration 50 pM), 10 μL test compound diluted in DMSO (final concentration 1 pM-10 μM), […] COS cell membrane preparation expressing one of the three α1-AR subtypes (0.05-0.2 mg membrane protein). The plate was incubated for 1 hour at room temperature and the reaction mixtures were filtered through a Packard GF/C Unifilter filter plate. The filter plate was dried for 1 hour in a vacuum oven. Scintillation fluid ([…]) was added to each well, and the filter plate was counted in a Packard Topcount scintillation counter. Data was analyzed using GraphPad Prism software.
(§6) Tables A-J list the IC50 values expressed in nanomolar concentration for select compounds of the invention in all receptor subtypes.

Assay [2] relates to rat prostatic tissue. The assay can be described thus: norepinephrine-induced contractile response of rat prostatic tissue. The note with it: rat prostate strips, 32° C., pH 7.4, read-out: IC50, inhibition of contractile response in prostate tissue. The format is cell-based. The source says:
The contractile responses of rat prostatic tissue and rat aorta tissues were examined in the presence and absence of antagonist compounds. As an indication of the selectivity of antagonism, test compound effects on vascular smooth muscle contractility (α1b-AR and α1d-AR) were compared to the effects on prostatic smooth muscle (α1a-AR). Strips of prostatic tissue and aortic rings were obtained from Long Evans derived male rats weighing 275 grams and sacrificed by cervical dislocation. The prostate tissue was placed under 1 gram tension in a 10 ml bath containing phosphate buffered saline pH 7.4 at 32° C. and isometric tension was measured with force transducers. The aortic tissue was placed under 2 grams tension in a 10 ml bath containing phosphate buffered saline pH 7.4 at 37° C. The ability of test compound to reduce the norepinephrine-induced contractile response by 50% (IC50) was determined.

For assay [3], the target named is T2, α1b-AR (Homo sapiens, UniProt P35368).
T2 construct: expressed in transfected cells; host or cells: COS cells (pcDNA3 vector, DEAE-dextran transient transfection); membrane preparation
T2 sequence (P35368 1-520): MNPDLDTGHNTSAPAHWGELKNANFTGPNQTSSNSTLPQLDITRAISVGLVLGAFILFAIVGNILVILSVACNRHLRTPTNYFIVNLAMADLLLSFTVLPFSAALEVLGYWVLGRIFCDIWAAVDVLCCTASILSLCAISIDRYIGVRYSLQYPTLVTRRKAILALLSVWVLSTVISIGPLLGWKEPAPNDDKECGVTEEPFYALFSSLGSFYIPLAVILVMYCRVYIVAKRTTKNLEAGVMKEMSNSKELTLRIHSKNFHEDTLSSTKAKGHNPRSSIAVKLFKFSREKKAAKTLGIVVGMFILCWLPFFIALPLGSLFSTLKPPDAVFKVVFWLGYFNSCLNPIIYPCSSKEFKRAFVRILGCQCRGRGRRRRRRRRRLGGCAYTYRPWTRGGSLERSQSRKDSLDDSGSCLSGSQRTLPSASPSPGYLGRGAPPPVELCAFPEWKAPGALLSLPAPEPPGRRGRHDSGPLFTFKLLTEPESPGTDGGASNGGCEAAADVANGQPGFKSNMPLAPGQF
The assay can be described thus: radioligand ([125I]-HEAT) receptor binding assay, COS cell membranes, α1b-AR. The settings on record: Tables A-J; [125I]-HEAT 50 pM, COS membranes; read-out: α1b IC50.
Text: as §1, §2, §3, §4, §5, §6

One may read the pIC50 as the negative decadic logarithm of the IC50, by convention in mol/L. As to `CC(C)Oc1ccccc1N1CCN(Cc2ncc(CN3CCCCC3=O)s2)CC1` [Compound 16], the pIC50 in assay [1] was 6.68; in assay [2], 6.42; in assay [3], 5.07.
Turning to `CC(C)Oc1ccccc1N1CCN(Cc2cc(CN3CCCCC3=O)n[nH]2)CC1` [Compound 3], the results for the pIC50 in assay [1], in assay [2] and in assay [3] were 6.75, 5.89 and 5.41, respectively.

(Values after patent US6841682B2, “Heterocycles useful in the treatment of benign prostatic hyperplasia” (Janseen Pharmaceutica N.V., priority 1997, dated 2005).)
